These results are taken from PubChem BioAssay (NCI).

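Method: 48-hour compound exposure of cells in 96-well plates, five concentrations, linear interpolation of endpoints. TGI denotes the concentration required for complete inhibition of growth.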

One experiment deals with LXFL 529 NSCLC. The experiment is described as follows: inhibition of tumour cell growth, NCI panel, 48 h.
As for `O=C1C/C(=C/c2ccc(/C=C3/CC(=O)N(c4cccc(Br)c4)C3=O)cc2)C(=O)N1c1cccc(Br)c1`, the TGI is > 100 µM.

As to `CCOC(C[C@H](O)[C@H]1COC(=S)S1)OCC`, the TGI was > 100 µM.

`CCCCCCn1c(SCC)c2ccccc2c1-c1nc(F)nc(F)n1`: the TGI was > 100 µM.

Turning to `CN(C(=O)C12C3C4C1C1C2C3C41I)C(C)(C)C` (centres undefined), the TGI is > 100 µM.

`Cn1c(O)c(C(=O)Nc2cccs2)c(=O)[nH]c1=S` registered a TGI of 40.8 µM.

For `CC(=O)/C(=C\c1ccco1)C(=O)Nc1ccccc1`, the TGI is > 100 µM.

Take `NCC1(N2CCOCC2)C2CCCC21CO` (centres undefined): the TGI was > 100 µM.

Consider `CC#COP(=O)(OCC)OCC`, for which the TGI was > 100 µM.

On to `COc1ccc(/C=C(\Cl)c2ccc(OC)c(OC)c2)cc1OC`, for which the TGI is > 100 µM.

Take `Cc1c2ccncc2cc2c1sc1ccncc12`: the TGI worked out at 28.1 µM.

As for `C=CCONC(=O)c1ccc(Cl)cc1`, the TGI was > 100 µM.

Regarding `O=C(CC1Sc2ccccc2NC1=O)Nc1cc(Cl)ccc1Cl` (centres undefined), the TGI is > 100 µM.

As for `O=C(CCn1[nH]c(=O)c(Cl)c(Cl)c1=O)NOCCCc1ccccc1`, the TGI is > 100 µM.

In the case of `CC(C)=CCCC1(C)C=Cc2c(c(C)cc3c2[nH]c2cc(O)ccc23)O1` (centres undefined), the TGI is > 25 µM.

Take `COc1cc(NC(C)=O)c2[nH]c3c(C)cc(NC(C)=O)c(C)c3c2c1`: the TGI is > 100 µM.

In the case of `COc1cc(/C=C\c2ccccn2)cc(OC)c1OC`, the TGI was > 100 µM.

Turning to `O=P(O)(OCC(O)O)OCC(O)O`, the TGI is > 100 µM.

With `CCOC(=O)CSc1ccnc(=O)[nH]1`, the TGI is > 100 µM.

For `COc1ccc(Br)c2c1CC(C(=O)O)CC2` (centres undefined), the TGI was > 100 µM.

Regarding `C/C(=N\N)C(CN(C)C)C(c1ccccc1)c1c(O)c2ccccc2oc1=O` (centres undefined), the TGI was > 100 µM.

`c1ccc(Nc2nnc(CSc3nc(-c4ccccc4)c(-c4ccccc4)[nH]3)s2)cc1`: the TGI was 53.3 µM.

The test system of the next experiment is SNB-78 CNS. Put plainly: inhibition of tumour cell growth, NCI panel, 48 h.
Take `O=C1C/C(=C/c2ccc(/C=C3/CC(=O)N(c4cccc(Br)c4)C3=O)cc2)C(=O)N1c1cccc(Br)c1`: the TGI was > 100 µM.

For the molecule `CCCCCCn1c(SCC)c2ccccc2c1-c1nc(F)nc(F)n1`, the TGI was > 100 µM.

Consider `CN(C(=O)C12C3C4C1C1C2C3C41I)C(C)(C)C` (centres undefined), for which the TGI is > 100 µM.

Regarding `Cn1c(O)c(C(=O)Nc2cccs2)c(=O)[nH]c1=S`, the TGI came to 47.7 µM.

Turning to `CC(=O)/C(=C\c1ccco1)C(=O)Nc1ccccc1`, the TGI is > 100 µM.

`NCC1(N2CCOCC2)C2CCCC21CO` (centres undefined): the TGI is > 100 µM.

Consider `CC#COP(=O)(OCC)OCC`, for which the TGI was > 100 µM.

On to `Cc1c2ccncc2cc2c1sc1ccncc12`, for which the TGI was 40.9 µM.

For the molecule `C=CCONC(=O)c1ccc(Cl)cc1`, the TGI was > 100 µM.

For `O=C(CC1Sc2ccccc2NC1=O)Nc1cc(Cl)ccc1Cl` (centres undefined), the TGI is > 100 µM.

On to `COc1cc(/C=C/C(=O)c2sc(-n3nc(-c4ccccc4)cc3-c3ccccc3)nc2C)ccc1O`, for which the TGI is > 100 µM.

With `O=C(CCn1[nH]c(=O)c(Cl)c(Cl)c1=O)NOCCCc1ccccc1`, the TGI was > 100 µM.

Regarding `COc1cc(/C=C\c2ccccn2)cc(OC)c1OC`, the TGI was > 100 µM.

Regarding `O=P(O)(OCC(O)O)OCC(O)O`, the TGI was > 100 µM.

Take `CCOC(=O)CSc1ccnc(=O)[nH]1`: the TGI was > 100 µM.

On to `COc1ccc(Br)c2c1CC(C(=O)O)CC2` (centres undefined), for which the TGI is > 100 µM.

For the molecule `C/C(=N\N)C(CN(C)C)C(c1ccccc1)c1c(O)c2ccccc2oc1=O` (centres undefined), the TGI was > 100 µM.

`c1ccc(Nc2nnc(CSc3nc(-c4ccccc4)c(-c4ccccc4)[nH]3)s2)cc1` gave a TGI of 79.9 µM.

The subject of a further experiment is DMS 273 small cell lung. The experiment is described as follows: inhibition of tumour cell growth, NCI panel, 48 h.
`O=C1C/C(=C/c2ccc(/C=C3/CC(=O)N(c4cccc(Br)c4)C3=O)cc2)C(=O)N1c1cccc(Br)c1`: the TGI was > 100 µM.

For `CCOC(C[C@H](O)[C@H]1COC(=S)S1)OCC`, the TGI was > 100 µM.

Consider `CCCCCCn1c(SCC)c2ccccc2c1-c1nc(F)nc(F)n1`, for which the TGI is > 100 µM.

In the case of `CN(C(=O)C12C3C4C1C1C2C3C41I)C(C)(C)C` (centres undefined), the TGI is > 100 µM.

As to `NCC1(N2CCOCC2)C2CCCC21CO` (centres undefined), the TGI was > 100 µM.

In the case of `COc1ccc(/C=C(\Cl)c2ccc(OC)c(OC)c2)cc1OC`, the TGI is > 100 µM.

As for `Cc1c2ccncc2cc2c1sc1ccncc12`, the TGI is 11.1 µM.

Regarding `O=C(CC1Sc2ccccc2NC1=O)Nc1cc(Cl)ccc1Cl` (centres undefined), the TGI is > 100 µM.

For `COc1cc(/C=C/C(=O)c2sc(-n3nc(-c4ccccc4)cc3-c3ccccc3)nc2C)ccc1O`, the TGI was > 100 µM.

Turning to `O=C(CCn1[nH]c(=O)c(Cl)c(Cl)c1=O)NOCCCc1ccccc1`, the TGI was > 100 µM.

As to `CC(C)=CCCC1(C)C=Cc2c(c(C)cc3c2[nH]c2cc(O)ccc23)O1` (centres undefined), the TGI is > 25 µM.

In the case of `COc1cc(NC(C)=O)c2[nH]c3c(C)cc(NC(C)=O)c(C)c3c2c1`, the TGI is > 100 µM.

Turning to `COc1cc(/C=C\c2ccccn2)cc(OC)c1OC`, the TGI was > 100 µM.

As to `O=P(O)(OCC(O)O)OCC(O)O`, the TGI is > 100 µM.

In the case of `CCOC(=O)CSc1ccnc(=O)[nH]1`, the TGI was > 100 µM.

In the case of `COc1ccc(Br)c2c1CC(C(=O)O)CC2` (centres undefined), the TGI is > 100 µM.

For `C/C(=N\N)C(CN(C)C)C(c1ccccc1)c1c(O)c2ccccc2oc1=O` (centres undefined), the TGI is > 100 µM.

As for `c1ccc(Nc2nnc(CSc3nc(-c4ccccc4)c(-c4ccccc4)[nH]3)s2)cc1`, the TGI was determined as 43.4 µM.

The subject of the next experiment is RXF-631 renal. Put plainly: inhibition of tumour cell growth, NCI panel, 48 h.
In the case of `CN(C(=O)C12C3C4C1C1C2C3C41I)C(C)(C)C` (centres undefined), the TGI was > 100 µM.

Turning to `CC#COP(=O)(OCC)OCC`, the TGI was > 100 µM.

For `Cc1c2ccncc2cc2c1sc1ccncc12`, the TGI is > 40.9 µM.

In the case of `C=CCONC(=O)c1ccc(Cl)cc1`, the TGI was > 100 µM.

Turning to `O=C(CC1Sc2ccccc2NC1=O)Nc1cc(Cl)ccc1Cl` (centres undefined), the TGI was > 100 µM.

`COc1cc(/C=C/C(=O)c2sc(-n3nc(-c4ccccc4)cc3-c3ccccc3)nc2C)ccc1O`: the TGI is > 100 µM.

Consider `O=C(CCn1[nH]c(=O)c(Cl)c(Cl)c1=O)NOCCCc1ccccc1`, for which the TGI was > 100 µM.

For the molecule `COc1cc(/C=C\c2ccccn2)cc(OC)c1OC`, the TGI is > 100 µM.

As for `O=P(O)(OCC(O)O)OCC(O)O`, the TGI was > 100 µM.

On to `C/C(=N\N)C(CN(C)C)C(c1ccccc1)c1c(O)c2ccccc2oc1=O` (centres undefined), for which the TGI was > 100 µM.

The next experiment deals with DMS 114 small cell lung. The experiment is described as follows: inhibition of tumour cell growth, NCI panel, 48 h.
Regarding `O=C1C/C(=C/c2ccc(/C=C3/CC(=O)N(c4cccc(Br)c4)C3=O)cc2)C(=O)N1c1cccc(Br)c1`, the TGI was > 100 µM.

In the case of `CCOC(C[C@H](O)[C@H]1COC(=S)S1)OCC`, the TGI was > 100 µM.

`CCCCCCn1c(SCC)c2ccccc2c1-c1nc(F)nc(F)n1`: the TGI is > 100 µM.

Turning to `CN(C(=O)C12C3C4C1C1C2C3C41I)C(C)(C)C` (centres undefined), the TGI was > 100 µM.

Consider `Cn1c(O)c(C(=O)Nc2cccs2)c(=O)[nH]c1=S`, for which the TGI turned out to be 35.9 µM.

As for `CC(=O)/C(=C\c1ccco1)C(=O)Nc1ccccc1`, the TGI is > 100 µM.

As to `NCC1(N2CCOCC2)C2CCCC21CO` (centres undefined), the TGI is > 100 µM.

For the molecule `CC#COP(=O)(OCC)OCC`, the TGI was > 100 µM.

As to `COc1ccc(/C=C(\Cl)c2ccc(OC)c(OC)c2)cc1OC`, the TGI is > 100 µM.

The molecule `Cc1c2ccncc2cc2c1sc1ccncc12` registered a TGI of 21.6 µM.

In the case of `C=CCONC(=O)c1ccc(Cl)cc1`, the TGI was > 100 µM.

Take `O=C(CC1Sc2ccccc2NC1=O)Nc1cc(Cl)ccc1Cl` (centres undefined): the TGI is > 100 µM.
